Patent US20120053053A1, “PYRIMIDINE DERIVATIVES AND THEIR USE AS HERBICIDES” (SYNGENTA CROP PROTECTION, LLC, priority 2009, published 2012)
Several values for one entry are separate records, joined by “and”; a condition that tells them apart may be missing. Equal values may be shown once.

Assays:
Type in all cases: in vivo
[1] = tested on: Alopecurus myosuroides (ALOMY); test: Pre-emergence biological efficacy (percentage damage); conditions: dose 1,000 g/ha, evaluated after 13 days, 100=total damage, 0=no damage; for pest or weed control at 1000 g/ha: Alopecurus myosuroides, 312 h
Procedure, shortened: (§1)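 Seeds were sown in standard soil in pots and, one day later, sprayed with test compound at 250 or 1000 g/ha in acetone/water (50:50) with 0.5% Tween 20. Plants grew in a glasshouse at 24/16 °C day/night, 14 h light, 65% humidity; damage was scored after 13 days (0 = none, 100 = total).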

[2] = tested on: Amaranthus retoflexus (AMARE); test: as above; conditions: dose 1,000 g/ha, evaluated after 13 days, 100=total damage, 0=no damage; for pest or weed control at 1000 g/ha: Amaranthus retroflexus, 312 h
Procedure, shortened: as §1

[3] = tested on: Echinochloa crus-galli (ECHCG); test: as above; conditions: dose 1,000 g/ha, evaluated after 13 days, 100=total damage, 0=no damage; for pest or weed control at 1000 g/ha: Echinochloa crus-galli, 312 h
Procedure, shortened: as §1

[4] = tested on: Ipomea hederaceae (IPOHE); test: as above; conditions: dose 1,000 g/ha, evaluated after 13 days, 100=total damage, 0=no damage; for pest or weed control at 1000 g/ha: Ipomoea hederacea, 312 h
Procedure, shortened: as §1

Setaria faberi (SETFA) [5] = test: as above; conditions: dose 1,000 g/ha, evaluated after 13 days, 100=total damage, 0=no damage; for pest or weed control at 1000 g/ha: Setaria faberi, 312 h
Procedure, shortened: as §1

Solanum nigrum (SOLNI) [6] = test: as above; conditions: dose 1,000 g/ha, evaluated after 13 days, 100=total damage, 0=no damage; for pest or weed control at 1000 g/ha: Solanum nigrum, 312 h
Procedure, shortened: as §1

[7] = tested on: Alopecurus myosuroides (ALOMY); test: Post-emergence biological efficacy (percentage damage); conditions: dose 1,000 g/ha, evaluated after 13 days, 100=total damage, 0=no damage; for pest or weed control at 1000 g/ha: Alopecurus myosuroides, 312 h
Procedure, shortened: (§2)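 Percentage damage (0 no damage to 100 total) was assessed 13 days after spraying plants raised for 8 days in pots. Test compound was applied as an aqueous acetone/water (50:50) spray containing 0.5% Tween 20 to give 250 or 1000 g/ha.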

[8] = tested on: Amaranthus retoflexus (AMARE); test: as above; conditions: dose 1,000 g/ha, evaluated after 13 days, 100=total damage, 0=no damage; for pest or weed control at 1000 g/ha: Amaranthus retroflexus, 312 h
Procedure, shortened: as §2

[9] = tested on: Echinochloa crus-galli (ECHCG); test: as above; conditions: dose 1,000 g/ha, evaluated after 13 days, 100=total damage, 0=no damage; for pest or weed control at 1000 g/ha: Echinochloa crus-galli, 312 h
Procedure, shortened: as §2

[10] = tested on: Ipomea hederaceae (IPOHE); test: as above; conditions: dose 1,000 g/ha, evaluated after 13 days, 100=total damage, 0=no damage; for pest or weed control at 1000 g/ha: Ipomoea hederacea, 312 h
Procedure, shortened: as §2

Setaria faberi (SETFA) [11] = test: as above; conditions: dose 1,000 g/ha, evaluated after 13 days, 100=total damage, 0=no damage; for pest or weed control at 1000 g/ha: Setaria faberi, 312 h
Procedure, shortened: as §2

Solanum nigrum (SOLNI) [12] = test: as above; conditions: dose 1,000 g/ha, evaluated after 13 days, 100=total damage, 0=no damage; for pest or weed control at 1000 g/ha: Solanum nigrum, 312 h
Procedure, shortened: as §2

SMILES | pest or weed control at 1000 g/ha [1] | pest or weed control at 1000 g/ha [2] | pest or weed control at 1000 g/ha [3] | pest or weed control at 1000 g/ha [4] | pest or weed control at 1000 g/ha (Setaria faberi (SETFA) [5]) | pest or weed control at 1000 g/ha (Solanum nigrum (SOLNI) [6]) | pest or weed control at 1000 g/ha [7] | pest or weed control at 1000 g/ha [8] | pest or weed control at 1000 g/ha [9] | pest or weed control at 1000 g/ha [10] | pest or weed control at 1000 g/ha (Setaria faberi (SETFA) [11]) | pest or weed control at 1000 g/ha (Solanum nigrum (SOLNI) [12]) | other results
C=Cc1c(N)nc(-c2ccc(Cl)c(F)c2)nc1C(=O)OC [Compound 19-61, 4-Amino-2-(4-chloro-3-fluorophenyl)-5-ethenyl-6-methoxycarbonyl-pyrimidine] | 50% | 100% | 70% | 100% | 30% | 100% | 40% | 100% | 60% | 100% | 40% | 100% | –
C=Cc1c(N=[N+]=[N-])nc(C2CC2)nc1C(=O)OC [Compound 2-399, 4-azido-2-cyclopropyl-5-ethenyl-6-methoxycarbonyl-pyrimidine] | 0% | 0% | 0% | 0% | 0% | 0% | 0% | 20% | 0% | 20% | 0% | 20% | –
C=C(C)c1c(N)nc(-c2ccc(Cl)c(N(C)C)c2F)nc1C(=O)OC [Compound 33-64, 4-Amino-2-(4-chloro-3-dimethylamino-2-fluorophenyl)-6-methoxycarbonyl-5-(prop-1-en-2-yl)-pyrimidine] | 0% | 0% | 0% | 0% | 0% | 0% | 0% | 10% | 0% | 10% | 0% | 20% | –
C=Cc1c(N)nc(-c2ccc(F)c(C(F)(F)F)c2)nc1C(=O)OC [Compound 43-61, 4-Amino-5-ethenyl-2-(4-fluoro-3-trifluoromethyl-phenyl)-6-methoxycarbonyl-pyrimidine] | 30% | 60% | 70% | 10% | 50% | 70% | 30% | 20% | 30% | 10% | 20% | 70% | –
C=Cc1c(N)nc(-c2ccc3ccccc3c2)nc1C(=O)OC [Compound 73-61, 4-Amino-5-ethenyl-6-methoxycarbonyl-2-(2-naphthyl)-pyrimidine] | 0% | 0% | 0% | 0% | 0% | 0% | 0% | 20% | 0% | 0% | 0% | 30% | –
C/C=C\c1c(N)nc(-c2ccc(Cl)c(N(C)C)c2F)nc1C(=O)OC [33-62 (Z)] | – | – | – | – | – | – | – | – | – | – | – | – | Percentage damage ALOMY, pre-emergence [1]: 30%; Percentage damage AMARE, pre-emergence [2]: 70%; Percentage damage ECHCG, pre-emergence [3]: 30%; Percentage damage IPOHE, pre-emergence [4]: 20%; Percentage damage SETFA, pre-emergence (Setaria faberi (SETFA) [5]): 30%; Percentage damage SOLNI, pre-emergence (Solanum nigrum (SOLNI) [6]): 60%; Percentage damage ALOMY, post-emergence [7]: 80% and 60%; Percentage damage AMARE, post-emergence [8]: 100%; Percentage damage ECHCG, post-emergence [9]: 80% and 70%; Percentage damage IPOHE, post-emergence [10]: 40% and 30%; Percentage damage SETFA, post-emergence (Setaria faberi (SETFA) [11]): 80% and 70%; Percentage damage SOLNI, post-emergence (Solanum nigrum (SOLNI) [12]): 80%
C=Cc1c(N)nc(-c2ccc(C(=O)OC)cc2)nc1C(=O)OC [Compound 69-61, 4-Amino-5-ethenyl-6-methoxycarbonyl-2-(4-methoxycarbonyl-phenyl)-pyrimidine] | 0% | 0% | 0% | 0% | 0% | 0% | 0% | 0% | 0% | 30% | 0% | 20% | –
